≈ marks a conversion by molar mass, not a printed value. Where two headings read alike, the source gives them in different places.

The subject of this assay is P388 lymphocytic leukemia (PS System) cell line. Put plainly: P388 lymphocytic leukemia in vitro cell line growth inhibition (PS bioassay). In kind it is cell-based, murine. How it is done: Because of the dolastatin's potency, the sea hare seems to require only vanishingly small quantities (about 1 mg each from 100 kg), making isolation and structural elucidation of these peptides exceptionally challenging. Later another substance was isolated and determined to be a unique linear pentapeptide and was denominated "dolastatin 10".

`C/C=C1/NC(=O)C(NC(=O)C(NC(=O)C(CO)OC)C(C)C)C(C)OC(=O)C(C(C)C)NC(=O)C(Cc2ccccc2)N(C)C(=O)C(Cc2ccccc2)N2C(=O)C(CCC2O)NC1=O` (centres unmarked) [dolastatin 13] displayed an ED50 of 1.3 ng/mL (≈ 1.43 nM). Moreover, the ED50 (listed as Dolastatin 13) amounted to 13 ng/mL (≈ 14.3 nM).

These data come from patent US4986988A, “Isolation and structural elucidation of the cytostatic linear depsipeptides dolastatin 13 and dehydrodolastatin 13” (priority 1989, dated 1991).
